Reference: patent publication US20200138827A1, “SMALL MOLECULE MODULATORS OF HUMAN STING” (Curadev Pharma Limited, priority 2017, published 2020)

What was measured:
hSTING(H232) = biological target: T1, hSTING(H232) (Homo sapiens, UniProt Q86WV6); test: Luciferase reporter assay in HEK293T-hSTING-Luciferase cells, H232 polymorph; format: cell-based; settings: 20 hr stimulation, read-out: H232 activity (EC50 range)
T1 construct: host or cells: HEK293T
Excerpt: (§1) • a) Stable STING expressing cells—Stable HEK293T STING-expressing cell lines were generated using plasmids purchased from Invivogen, Calif., USA, that contain STING cDNA cloned into the pUNO-1 vector under hEF1-HTLV promoter and containing the Blasticidin selection cassette. The plasmids hSTING(R232), hSTING(H232), hSTING(HAQ) were directly procured from Invivogen while hSTING (AQ) and hSTING (Q) were derived from hSTING(HAQ) and hSTING (R232) plasmids respectively by using a PCR based site directed mutagenesis method. These vectors were individually transfected into HEK293T cells using Lipofectamine (Invitrogen) and transfected cells were selected under Blasticidin selection. These transfected cells were further subjected to clonal selection using the limiting dilution method to obtain clonally pure populations of HEK cells transfected with each of the above mentioned human STING variants. Only those clones were selected in which ligand independent activation of STING was minimal. • b) Stable Luciferase reporter gene expressing cells—Stable HEK293T Luciferase reporter gene expressing cell lines were generated using pCDNA4 plasmids under an IRF-inducible promoter. This promoter is comprised of five tandem interferon-stimulated response elements (ISRE) fused to an ISG54 minimal promoter. This vector was transfected into HEK293T cells using Lipofectamine (Invitrogen) and transfected cells were selected under Zeocin selection. These transfected cells were further subjected to clonal selection using the limiting dilution method to obtain clonally pure populations of HEK cells transfected the Luciferase reporter construct. Only those clones were selected in which ligand independent induction of luciferase was minimal.
(§2) 5×10^5 clonally selected HEK293T-hSTING-Luciferase cells were seeded in 384-well plates in growth medium and stimulated with novel compounds. After 20 hr of stimulation supernatant were removed and secretary reporter gene activity were measured using the Quanti-Luc detection system (Invivogen) on a Spectramax i3X luminometer.
(§3) The 5 major polymorphisms of human STING are shown in FIG. 1, with their prevalence in human populations indicated.

NF-κB pathway = test: Reporter gene expression assay in THP1-Dual cells, NFkB axis (secreted SEAP); format: cell-based, human; settings: Homo sapiens, THP1-Dual, read-out: THP-NFKB activity (EC50 range)
Procedure: (§4) THP1-Dual™ cells (Invivogen) were derived from the human THP-1 monocyte cell line by stable integration of two inducible reporter constructs. As a result, THP1-Dual™ cells allow the simultaneous study of the NF-κB pathway, by monitoring the activity of secreted SEAP, and the IRF pathway, by assessing the activity of a secreted luciferase (Lucia). […] THP1-Dual™ cells were seeded in 384-well plates in growth medium and stimulated with novel compounds. After […] of stimulation supernatant were removed and reporter proteins were readily measured in the cell culture supernatant using QUANTI-Blue™ (Invivogen), a SEAP detection reagent, and QUANTI-Luc™ (Invivogen), a luciferase detection reagent on a Spectramax i3X luminometer.

WT/R232 STING protein = biological target: T2, WT/R232 STING protein (Homo sapiens, UniProt Q86WV6, H232R); test: Luciferase reporter assay in HEK293T-hSTING-Luciferase cells, WT/R232; format: cell-based; settings: 20 hr stimulation, read-out: R232 Activity (EC50 range)
T2 construct: host or cells: HEK293T
In short: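 […], read by luminescence from supernatant after 20 h compound stimulation. Cells: clonally selected HEK293T (5×10^5/well) stably carrying WT/R232 human STING and a luciferase reporter under five tandem ISREs fused to an ISG54 minimal promoter.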

hSTING(HAQ) = biological target: T3, hSTING(HAQ) (Homo sapiens, UniProt Q86WV6, G230A/H232R/R293Q/R71H); test: Luciferase reporter assay in HEK293T-hSTING-Luciferase cells, HAQ polymorph; format: cell-based; settings: 20 hr stimulation, read-out: HAQ activity (EC50 range)
T3 construct: host or cells: HEK293T
Excerpt: as §1, §2, §3

IRF pathway = test: Reporter gene expression assay in THP1-Dual cells, IRF axis (secreted Lucia luciferase); format: cell-based, human; settings: Homo sapiens, THP1-Dual, read-out: THP-IRF activity (EC50 range)
Procedure: as §4

T3 sequence (Q86WV6 whole entry R71H/G230A/H232R/R293Q): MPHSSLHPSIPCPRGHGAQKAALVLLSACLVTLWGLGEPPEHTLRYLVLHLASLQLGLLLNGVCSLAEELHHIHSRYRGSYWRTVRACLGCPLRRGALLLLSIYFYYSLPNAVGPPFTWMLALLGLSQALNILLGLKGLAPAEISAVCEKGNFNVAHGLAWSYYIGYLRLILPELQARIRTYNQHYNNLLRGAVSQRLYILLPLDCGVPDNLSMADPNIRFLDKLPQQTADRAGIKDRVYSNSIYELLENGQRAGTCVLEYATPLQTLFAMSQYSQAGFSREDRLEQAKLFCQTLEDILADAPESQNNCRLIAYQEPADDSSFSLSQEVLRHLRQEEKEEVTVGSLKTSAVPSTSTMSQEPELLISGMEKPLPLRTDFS
T1 sequence (Q86WV6 whole entry): as the sequence (Q86WV6 whole entry R71H/G230A/H232R/R293Q) above, with H71R, A230G, R232H, Q293R counted along it
T2 sequence (Q86WV6 whole entry H232R): as the sequence (Q86WV6 whole entry R71H/G230A/H232R/R293Q) above, with H71R, A230G, Q293R counted along it

| SMILES | EC50 (hSTING(H232)) [µM] | EC50 (NF-κB pathway) [µM] | EC50 (WT/R232 STING protein) [µM] | EC50 (hSTING(HAQ)) [µM] | EC50 (IRF pathway) [µM] |
| --- | --- | --- | --- | --- | --- |
| CC1Sc2ccc(C(=O)NCc3c(F)cc(F)cc3F)cc2N(Cc2cc(F)cc(F)c2)C1=O (centres unmarked) [Example 153, 4-(3,5-difluorobenzyl)-2-methyl-3-oxo-N-(2,4,6-trifluorobenzyl)-3,4-dihydro-2H-benzo[b][1,4] thiazine-6-carboxamide] | 1 to 10 | 1 to 10 | < 1 | 1 to 10 | 1 to 10 |
| O=C(NCc1ccc(F)cc1)c1ccc2c(c1)N(Cc1c(F)cccc1Cl)C(=O)CC2 [Example 269, 1-(2-chloro-6-fluorobenzyl)-N-(4-fluorobenzyl)-2-oxo-1,2,3,4-tetrahydroquinoline-7-carboxamide] | > 10 | > 10 | < 1 | 1 to 10 | > 10 |
| O=C(NCc1ccco1)c1ccc2c(c1)N(Cc1cc(F)cc(F)c1)C(=O)CS2 [Example 87, 4-(3,5-difluorobenzyl)-N-(furan-2-ylmethyl)-3-oxo-3,4-dihydro-2H-benzo[b][1,4] thiazine-6-carboxamide] | 1 to 10 | > 10 | < 1 | > 10 | > 10 |
| O=C(NCc1ccco1)c1ccc2c(n1)N(Cc1c(F)cccc1Cl)C(=O)CS2 [Example 181, 4-(2-chloro-6-fluorobenzyl)-N-(furan-2-ylmethyl)-3-oxo-3,4-dihydro-2H-pyrido[3,2-b-1,4]thiazine-6-carboxamide] | > 10 | > 10 | 1 to 10 | > 10 | > 10 |
| CC1Sc2ccc(C(=O)NCc3c(F)cc(F)cc3F)cc2N(Cc2cccc(C(N)=O)c2)C1=O (centres unmarked) [Example 160, 4-(3-carbamoylbenzyl)-2-methyl-3-oxo-N-(2,4,6-trifluorobenzyl)-3,4-dihydro-2H-benzo[b][1,4] thiazine-6-carboxamide] | > 10 | > 10 | < 1 | > 10 | > 10 |
| CC1Cc2ccc(C(=O)NCc3c(F)cc(F)cc3F)cc2N(Cc2cc(F)cc(F)c2)S1(=O)=O (centres unmarked) [Example 285, 1-(3,5-Difluorobenzyl)-3-methyl-N-(2,4,6-trifluorobenzyl)-3,4-dihydro-1H-benzo[c][1,2]thiazine-7-carboxamide 2,2-dioxide] | 1 to 10 | > 10 | 1 to 10 | 1 to 10 | > 10 |
| O=C(NCc1ccco1)c1ccc2c(c1)N(Cc1cccc(F)c1F)C(=O)CS2 [Example 82, 4-(2,3-difluorobenzyl)-N-(furan-2-ylmethyl)-3-oxo-3,4-dihydro-2H-benzo[b-1,4]thiazine-6-carboxamide] | 1 to 10 | > 10 | 1 to 10 | 1 to 10 | > 10 |
| CC1Sc2ccc(C(=O)NCc3ccccc3)nc2N(Cc2cc(F)cc(F)c2)C1=O (centres unmarked) [Example 191, N-benzyl-4-(3,5-difluorobenzyl)-2-methyl-3-oxo-3,4-dihydro-2H-pyrido[3,2-b-1,4]thiazine-6-carboxamide] | 1 to 10 | 1 to 10 | < 1 | 1 to 10 | 1 to 10 |
| CC1Sc2ccc(C(=O)NCc3ccc(F)cc3F)nc2N(Cc2c(F)cccc2Cl)C1=O (centres unmarked) [Example 187, 4-(2-chloro-6-fluorobenzyl)-N-(2,4-difluorobenzyl)-2-methyl-3-oxo-3,4-dihydro-2H-pyrido[3,2-b-1,4]thiazine-6-carboxamide] | > 10 | > 10 | 1 to 10 | > 10 | > 10 |
| CC1Sc2ncc(C(=O)NCc3ccccc3)cc2N(Cc2c(F)cccc2Cl)C1=O (centres unmarked) [Example 201, N-benzyl-1-(2-chloro-6-fluorobenzyl)-3-methyl-2-oxo-2,3-dihydro-1H-pyrido[2,3-b][1,4]thiazine-7-carboxamide] | 1 to 10 | > 10 | 1 to 10 | 1 to 10 | > 10 |
| Cc1cc(CN2C(=O)C(C)Sc3ccc(C(=O)NCc4c(F)cc(F)cc4F)cc32)no1 (centres unmarked) [Example 159, 2-methyl-4-((5-methylisoxazol-3-yl)methyl)-3-oxo-N-(2,4,6-trifluorobenzyl)-3,4-dihydro-2H-benzo[b][1,4] thiazine-6-carboxamide] | 1 to 10 | 1 to 10 | < 1 | 1 to 10 | 1 to 10 |

More lines, now with the values ahead:

| EC50 (hSTING(H232)) [µM] | EC50 (NF-κB pathway) [µM] | EC50 (WT/R232 STING protein) [µM] | EC50 (hSTING(HAQ)) [µM] | EC50 (IRF pathway) [µM] | SMILES |
| --- | --- | --- | --- | --- | --- |
| < 1 | > 10 | < 1 | 1 to 10 | > 10 | O=C(NCc1c(F)cccc1F)c1ccc2c(c1)N(Cc1c(F)cccc1Cl)C(=O)CS2 [Example 31, 4-(2-chloro-6-fluorobenzyl)-N-(2,6-difluorobenzyl)-3-oxo-3,4-dihydro-2H-benzo[b-1,4]thiazine 6-carboxamide] |
| 1 to 10 | 1 to 10 | < 1 | < 1 | 1 to 10 | CC1(C)Sc2ccc(C(=O)NCc3cc4ccccc4o3)cc2N(Cc2c(F)cccc2Cl)C1=O [Example 154, N-(benzofuran-2-ylmethyl)-4-(2-chloro-6-fluorobenzyl)-2,2-dimethyl-3-oxo-3,4-dihydro-2H-benzo[b][1,4] thiazine-6-carboxamide] |
| 1 to 10 | > 10 | 1 to 10 | 1 to 10 | > 10 | O=C(NCc1cc2ccccc2o1)c1ccc2c(c1)N(Cc1ccccc1)C(=O)CS2 [Example 69, N-(benzofuran-2-ylmethyl)-4-benzyl-3-oxo-3,4-dihydro-2H-benzo[b-1,4]thiazine-6-carboxamide] |
| 1 to 10 | 1 to 10 | < 1 | 1 to 10 | > 10 | CC1Sc2ccc(C(=O)NCc3cc4ccccc4o3)nc2N(Cc2c(F)cccc2Cl)C1=O (centres unmarked) [Example 188, N-(benzofuran-2-ylmethyl)-4-(2-chloro-6-fluorobenzyl)-2-methyl-3-oxo-3,4-dihydro-2H-pyrido[3,2-b-1,4]thiazine-6-carboxamide] |
| > 10 | > 10 | 1 to 10 | 1 to 10 | > 10 | CC1(C)Sc2ccc(C(=O)NCc3cc4ccccc4o3)cc2N(Cc2ccccc2F)C1=O [Example 161, N-(benzofuran-2-ylmethyl)-4-(2-fluorobenzyl)-2,2-dimethyl-3-oxo-3,4-dihydro-2H-benzo[b][1,4] thiazine-6-carboxamide] |
| 1 to 10 | 1 to 10 | < 1 | 1 to 10 | 1 to 10 | CC1(C)Sc2ccc(C(=O)NCc3c(F)cc(F)cc3F)cc2N(Cc2ccccc2F)C1=O [Example 218, 4-(2-fluorobenzyl)-2,2-dimethyl-3-oxo-N-(2,4,6-trifluorobenzyl)-3,4-dihydro-2H-benzo[b][1,4] thiazine-6-carboxamide] |
| 1 to 10 | > 10 | 1 to 10 | > 10 | > 10 | O=C(NCc1ccco1)c1ccc2c(c1)N(Cc1c(F)cccc1Cl)C(=O)CS2 [Example 131, 4-(2-chloro-6-fluorobenzyl)-N-(furan-2-ylmethyl)-3-oxo-3,4-dihydro-2H-benzo[b][1,4]thiazine-6-carboxamide] |
| 1 to 10 | > 10 | < 1 | > 10 | > 10 | Cc1cccc(CNC(=O)c2ccc3c(c2)N(Cc2c(F)cccc2Cl)C(=O)CS3)c1 [Example 37, 4-(2-chloro-6-fluorobenzyl)-N-(3-methylbenzyl)-3-oxo-3,4-dihydro-2H-benzo[b-1,4]thiazine-6-carboxamide] |
